Reference: ChEMBL document CHEMBL1201862, “PubChem BioAssay data set” (2004)
Calls of active or inactive are those of the source.

Key:
Estrogen receptor = biological target: T1, Estrogen receptor (Homo sapiens, UniProt P03372);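 note: potency for inhibiting coactivator peptide recruitment to the receptor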
T1 sequence (P03372 whole entry): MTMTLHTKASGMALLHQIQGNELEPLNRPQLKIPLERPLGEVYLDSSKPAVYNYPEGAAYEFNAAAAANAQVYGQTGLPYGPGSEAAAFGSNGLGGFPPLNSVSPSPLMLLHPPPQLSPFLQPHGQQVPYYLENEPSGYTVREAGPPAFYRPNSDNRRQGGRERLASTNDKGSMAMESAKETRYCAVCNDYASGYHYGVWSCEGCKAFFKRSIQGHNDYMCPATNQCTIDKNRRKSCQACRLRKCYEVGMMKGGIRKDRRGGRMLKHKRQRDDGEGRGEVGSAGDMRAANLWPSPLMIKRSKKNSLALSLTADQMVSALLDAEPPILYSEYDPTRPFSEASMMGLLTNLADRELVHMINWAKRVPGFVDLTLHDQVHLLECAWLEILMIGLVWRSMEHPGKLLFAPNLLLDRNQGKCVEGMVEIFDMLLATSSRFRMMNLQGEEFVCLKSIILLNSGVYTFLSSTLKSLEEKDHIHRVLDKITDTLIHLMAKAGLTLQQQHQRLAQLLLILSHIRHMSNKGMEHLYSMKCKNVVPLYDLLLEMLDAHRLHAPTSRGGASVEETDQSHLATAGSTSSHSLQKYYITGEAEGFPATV

Estrogen receptor beta [1] = biological target: T2, Estrogen receptor beta (Homo sapiens, UniProt Q92731); assay: ERβ–SRC-3 coactivator interaction inhibitors, confirmation, orthogonal assay, biochemical, ELISA, streptavidin-HRP readout (AID 1060)
[2] = biological target: T3, Carboxy-terminal domain RNA polymerase II polypeptide A small phosphatase 1 (Homo sapiens, UniProt Q9GZU7); assay: inhibitors of CTDSP1, concentration-response testing, biochemical assay, absorbance-based, actives from ultra-high-throughput screening (AID 540297); type: functional
T3 sequence (Q9GZU7 whole entry): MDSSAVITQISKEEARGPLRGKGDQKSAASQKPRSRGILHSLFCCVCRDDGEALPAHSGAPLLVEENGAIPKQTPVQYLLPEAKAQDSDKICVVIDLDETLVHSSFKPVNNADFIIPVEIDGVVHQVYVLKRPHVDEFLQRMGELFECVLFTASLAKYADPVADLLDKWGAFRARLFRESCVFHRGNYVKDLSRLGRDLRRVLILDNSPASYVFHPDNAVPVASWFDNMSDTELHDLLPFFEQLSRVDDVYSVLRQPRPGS

Estrogen receptor beta [3] = biological target: T2, Estrogen receptor beta
Caspase-6 = biological target: T4, Caspase-6 (Homo sapiens, UniProt P55212); assay: human caspase-6 inhibitors, dose response, biochemical, VEID-R110 fluorescence, cherry-pick (AID 720632)
T4 sequence (P55212 whole entry): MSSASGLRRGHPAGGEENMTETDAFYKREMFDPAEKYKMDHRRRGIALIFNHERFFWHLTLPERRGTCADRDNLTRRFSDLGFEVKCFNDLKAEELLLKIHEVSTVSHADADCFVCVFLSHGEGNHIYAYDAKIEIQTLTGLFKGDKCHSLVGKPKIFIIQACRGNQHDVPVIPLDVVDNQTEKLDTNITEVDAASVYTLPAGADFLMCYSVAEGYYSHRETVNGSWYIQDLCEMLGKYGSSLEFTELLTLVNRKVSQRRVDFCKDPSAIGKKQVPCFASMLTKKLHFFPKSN

[4] = cytotoxicity in HPDE-C7 cells, cell-based, fluorescence, HTS (AID 430); type: functional; conditions: Homo sapiens
[5] = cytotoxicity in KRAS-transformed pancreatic duct cells, primary screen, cell-based, fluorescence, HTS (AID 431); type: functional; conditions: Homo sapiens;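 note: cell line used: HPDE-C7K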
[6] = growth suppression of beta-catenin-knockout colon cells, dose response, cell-based, HCT116, human colon tumor (AID 1045); type: functional;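 note: HCT116 colon tumor cells with beta catenin knocked out; cells exposed to compound for 60 hours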
[7] = growth suppression of PTEN-null colon cells, dose response, cell-based, HCT116 PTEN knockout (AID 1047); type: functional;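 note: HCT116 colon tumor cells with PTEN knocked out; cells exposed to compound for 60 hours before readout; potency for loss of cell viability measured by luminescence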
[8] = biological target: FAD-linked sulfhydryl oxidase ALR (Homo sapiens, UniProt P55789); assay: inhibitors of human ALR sulfhydryl oxidase, dose response, biochemical, H2O2 detection, luminescence, cherry-pick (AID 493248)
[9] = cytotoxicity toward DRD oncogenic fibroblasts, dose response, cell-based, non-viral oncogenic, luminescence (AID 1934); type: functional; conditions: Homo sapiens
[10] = cytotoxicity toward NIH3T3 fibroblasts, dose response, counter-screen, cell-based, ATP luminescence, mouse fibroblasts (AID 2010); type: functional;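 note: cells exposed to compound for about 90 hours before reading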
[11] = C. albicans growth with fluconazole, confirmation, fluorescence, retest (AID 2467); type: functional, cell-based
BJ [12] = assay: cytotoxicity toward BJ-TERT-LT-ST fibroblasts, dose response, cell-based, RAS-independent, luminescence (AID 1935); type: functional; conditions: Homo sapiens;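 note: BJ fibroblasts immortalized with TERT plus LT and ST oncogenes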
[13] = NIH-3T3 fibroblast cytotoxicity, dose response, cytotoxicity control, cell-based, fluorescence, Alamar Blue, secondary assay (AID 2327); type: functional;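 note: NIH-3T3 mouse fibroblasts cultured with fluconazole at 8 µg/mL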
BJ [14] = assay: cells; type: functional, cell-based; conditions: Homo sapiens
[15] = inhibitors of intracellular T. cruzi replication, confirmation, NIH3T3 host cells, beta-gal luminescence (AID 2044); type: functional, cell-based;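 note: intracellular parasites grown in NIH/3T3 mouse fibroblasts as host cells; luminescent beta-galactosidase reporter signal from transgenic T. cruzi replicating inside host cells; inhibitors lower the luminescence signal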
BJ [16] = assay: cytotoxicity toward BJ-TERT fibroblasts, dose response, cell-based, RAS-independent, luminescence (AID 1933); type: functional; conditions: Homo sapiens
[17] = biological target: T5, Short transient receptor potential channel 4 (Mus musculus, UniProt Q9QUQ5); assay: mouse TRPC4 channel inhibitors, dose response, cell-based, HEK293 TRPC4/mu-opioid, Fluo-4 calcium (AID 434942); type: functional;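 note: potency of inhibitors blocking the TRPC4 calcium response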
T5 sequence (Q9QUQ5 whole entry): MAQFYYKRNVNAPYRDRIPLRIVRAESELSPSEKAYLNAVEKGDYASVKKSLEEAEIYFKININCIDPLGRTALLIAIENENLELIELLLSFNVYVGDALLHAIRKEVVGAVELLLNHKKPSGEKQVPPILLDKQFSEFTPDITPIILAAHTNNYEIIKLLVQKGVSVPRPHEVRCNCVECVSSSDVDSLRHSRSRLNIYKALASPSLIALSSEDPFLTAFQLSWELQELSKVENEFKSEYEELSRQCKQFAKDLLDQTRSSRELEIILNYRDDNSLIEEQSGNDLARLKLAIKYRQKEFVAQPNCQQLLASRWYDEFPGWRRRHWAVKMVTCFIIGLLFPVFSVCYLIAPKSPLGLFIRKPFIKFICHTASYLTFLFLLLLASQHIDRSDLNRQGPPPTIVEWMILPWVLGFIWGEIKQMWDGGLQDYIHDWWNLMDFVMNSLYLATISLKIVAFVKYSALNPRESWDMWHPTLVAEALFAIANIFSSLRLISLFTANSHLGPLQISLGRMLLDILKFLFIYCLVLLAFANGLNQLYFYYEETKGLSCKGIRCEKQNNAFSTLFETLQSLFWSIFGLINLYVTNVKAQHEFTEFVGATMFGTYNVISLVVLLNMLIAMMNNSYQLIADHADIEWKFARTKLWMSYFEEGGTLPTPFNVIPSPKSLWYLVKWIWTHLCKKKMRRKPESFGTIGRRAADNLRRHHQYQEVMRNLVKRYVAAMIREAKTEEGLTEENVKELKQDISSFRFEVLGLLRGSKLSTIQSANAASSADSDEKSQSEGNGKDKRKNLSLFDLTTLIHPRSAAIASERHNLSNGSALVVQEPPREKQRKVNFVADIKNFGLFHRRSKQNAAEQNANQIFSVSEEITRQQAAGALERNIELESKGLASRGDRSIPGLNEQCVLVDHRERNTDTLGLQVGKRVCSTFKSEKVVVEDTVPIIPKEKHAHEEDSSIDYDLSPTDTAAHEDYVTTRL

[18] = inhibitors of Vif binding to APOBEC3G peptide, primary screen, biochemical, TR-FRET, GST-Vif 1-94, biotin-A3G peptide, dose response retest (AID 1117319); type: functional;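 note: TR-FRET signal of purified GST-Vif binding a biotinylated A3G peptide; inhibitors lower the FRET signal by blocking Vif and A3G binding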
Aminopeptidase N = biological target: T6, Aminopeptidase N (Plasmodium falciparum FcB1/Columbia, UniProt O96935); assay: P. falciparum M1AAP inhibitors, biochemical, fluorogenic H-Leu-NHMec substrate, 1536-well (AID 1445); set-up: species or system Plasmodium falciparum 3D7, 3D7
T6 sequence (O96935 whole entry): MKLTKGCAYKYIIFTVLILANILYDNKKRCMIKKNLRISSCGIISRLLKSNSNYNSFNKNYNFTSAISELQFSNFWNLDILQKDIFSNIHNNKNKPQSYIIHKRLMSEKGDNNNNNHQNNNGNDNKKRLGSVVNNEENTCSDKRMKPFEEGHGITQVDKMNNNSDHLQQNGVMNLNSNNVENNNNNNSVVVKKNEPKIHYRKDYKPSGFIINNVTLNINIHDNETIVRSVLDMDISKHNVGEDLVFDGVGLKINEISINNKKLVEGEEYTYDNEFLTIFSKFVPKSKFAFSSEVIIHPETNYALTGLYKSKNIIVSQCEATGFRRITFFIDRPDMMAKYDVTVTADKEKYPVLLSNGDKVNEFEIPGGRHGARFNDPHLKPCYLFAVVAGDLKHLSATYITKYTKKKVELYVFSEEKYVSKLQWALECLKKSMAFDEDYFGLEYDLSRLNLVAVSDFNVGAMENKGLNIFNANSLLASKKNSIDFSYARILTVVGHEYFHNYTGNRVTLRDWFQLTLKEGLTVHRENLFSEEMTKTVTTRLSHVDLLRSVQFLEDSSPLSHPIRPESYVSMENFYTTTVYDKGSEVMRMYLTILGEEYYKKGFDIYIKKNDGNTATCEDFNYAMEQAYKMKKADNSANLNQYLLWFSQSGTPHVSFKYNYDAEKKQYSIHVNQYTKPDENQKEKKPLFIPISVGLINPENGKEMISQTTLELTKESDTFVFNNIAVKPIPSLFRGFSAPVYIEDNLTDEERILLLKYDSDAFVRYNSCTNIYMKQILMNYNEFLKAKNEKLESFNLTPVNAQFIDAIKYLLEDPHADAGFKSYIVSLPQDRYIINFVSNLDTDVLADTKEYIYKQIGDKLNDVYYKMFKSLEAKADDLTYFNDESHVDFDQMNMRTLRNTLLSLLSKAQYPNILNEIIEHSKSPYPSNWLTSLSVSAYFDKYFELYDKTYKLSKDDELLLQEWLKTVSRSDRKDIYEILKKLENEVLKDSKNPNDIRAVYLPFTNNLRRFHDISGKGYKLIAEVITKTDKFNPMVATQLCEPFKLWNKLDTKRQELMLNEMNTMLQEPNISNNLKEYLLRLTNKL

[19] = P. falciparum ATP4 D1247Y mutant growth inhibitors, dose response, NITD609-resistant line, SYBR Green, dry powder (AID 1159571); type: functional, cell-based;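 note: parasites synchronized at ring stage by sorbitol before testing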
[20] = HepG2 cell cytotoxicity, dose response, cytotoxicity control, plate reader, dry powder samples (AID 1159569); type: functional, cell-based;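 note: inhibitor potency with signal falling toward the positive control level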
[21] = P. falciparum Dd2 growth inhibitors, dose response, SYBR Green, dry powder samples (AID 1159566); type: functional, cell-based;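 note: potency for growth inhibition with lower SYBR green DNA signal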
[22] = P. falciparum 3D7-ScDHODH growth inhibitors, dose response, SYBR Green, dry powder samples (AID 1159570); type: functional, cell-based;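 note: parasite growth measured after 72 hours of compound exposure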
[23] = P. falciparum Dd2 growth inhibitors, dose response, SYBR Green, cherry-picked samples (AID 1159567); type: functional, cell-based
[24] = HepG2 cell cytotoxicity, dose response, cytotoxicity control, cherry-picked samples (AID 1159577); type: functional, cell-based

T2 sequence (Q92731 whole entry, the tested form may be a part): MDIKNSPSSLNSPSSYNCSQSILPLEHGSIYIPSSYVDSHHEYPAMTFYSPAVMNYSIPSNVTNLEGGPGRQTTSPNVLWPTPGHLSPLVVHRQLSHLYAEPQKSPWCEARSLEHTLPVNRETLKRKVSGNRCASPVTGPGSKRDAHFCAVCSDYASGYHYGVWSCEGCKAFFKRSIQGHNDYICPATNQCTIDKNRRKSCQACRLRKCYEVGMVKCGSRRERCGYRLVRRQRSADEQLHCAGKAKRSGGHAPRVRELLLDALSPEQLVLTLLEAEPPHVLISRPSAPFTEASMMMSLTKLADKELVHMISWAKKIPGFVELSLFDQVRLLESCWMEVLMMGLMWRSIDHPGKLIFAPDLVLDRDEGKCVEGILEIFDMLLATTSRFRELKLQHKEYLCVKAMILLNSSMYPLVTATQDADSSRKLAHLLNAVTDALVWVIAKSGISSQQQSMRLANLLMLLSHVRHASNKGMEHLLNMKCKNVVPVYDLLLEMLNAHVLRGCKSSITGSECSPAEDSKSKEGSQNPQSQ
FAD-linked sulfhydryl oxidase ALR, sequence (P55789 whole entry): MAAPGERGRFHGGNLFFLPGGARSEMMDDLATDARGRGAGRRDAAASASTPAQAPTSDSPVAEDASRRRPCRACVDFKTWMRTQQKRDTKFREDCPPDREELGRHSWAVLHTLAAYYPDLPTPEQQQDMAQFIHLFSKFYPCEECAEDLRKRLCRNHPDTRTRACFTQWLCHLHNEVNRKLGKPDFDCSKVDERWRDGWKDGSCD

O=C(Cn1c(=O)n(Cc2ccco2)c(=O)c2c3c(sc21)CCCCC3)Nc1ccccc1
IC50 (Estrogen receptor): 7.24 µM (active)
IC50 (Estrogen receptor beta [1]): 24.9 µM (not active)
IC50 [2]: 4.93 µM (active)
IC50 (Estrogen receptor beta [3]): 6.57 µM (active)

O=C(Nc1cccnc1Cl)c1ccc(=O)oc1
AC50 (Caspase-6): 22 µM (active)
IC50 [2]: 17.8 µM (active)

CCc1c(C)nc(SCC(=O)CC(=O)OC(C)C)c(C#N)c1C
EC50 [4]: 7.84 µM (active)
EC50 [5]: 10.7 µM (active)

Oc1ccc(Br)cc1-c1nc2cnccn2c1NC1CCCC1
EC50 [6]: 36.4 µM (active)
EC50 [4]: 17.3 µM (active)
EC50 [5]: 12.5 µM (active)
EC50 [7]: 38.9 µM (active)
AC50 [8]: 1.55 µM (active)

Cc1csc2ncc(C(=O)N3c4ccccc4CC3C)c(=O)n12 (stereo not given)
IC50 (Estrogen receptor beta [3]): > 50 µM (not active)

CCN(CC)c1ccc(/C=C/c2cccc[n+]2C)c(OC)c1
EC50 [9]: 15.2 µM (active)
EC50 [10]: > 60 µM (not active)
EC50 [11]: 0.34 µM (active)
EC50 (BJ [12]): 13.7 µM (inconclusive)
EC50 [13]: > 150 µM (inactive)
EC50 (cells): 0.023 µM (active)
EC50 (BJ [14]): 17.9 µM (active)
EC50 [15]: < 0.1 µM (active)
AC50 [8]: 0.452 µM (active)
EC50 (BJ [16]): 7.77 µM (active)

O=[N+]([O-])c1ccc(CN2CCN(Cc3c[nH]c4ccccc34)CC2)cc1
EC50 [10]: > 60 µM (not active)
EC50 (cells): 0.249 µM (active)
EC50 [15]: < 0.1 µM (active)
EC50 [17]: 5.96 µM (active)

CCc1cccc(NC(=O)CN(C)S(=O)(=O)c2cccc3nsnc23)c1
IC50 [18]: > 100 µM (active)

CCOc1ccc(C2c3c(oc4ccccc4c3=O)C(=O)N2CCCN2CCOCC2)cc1 (stereo not given)
IC50 [18]: > 100 µM (active)

O=C(C1=C[C@H](C2CCCCC2)C[C@H](OCCCCO)O1)N1CCN(Cc2ccc3c(c2)OCO3)CC1
EC50 [10]: > 60 µM (not active)
EC50 (cells): 0.058 µM (active)
EC50 [15]: < 0.1 µM (active)

O=C1C2CCCN2C(c2ccccc2)N1c1nccs1 (stereo not given)
IC50 [18]: > 100 µM (active)

CC(=O)N1CCc2cc(S(=O)(=O)NCCC(=O)Nc3cccc(C)c3C)ccc21
IC50 [18]: > 100 µM (active)

CCOc1[nH]c(/N=C/c2ccco2)c(C#N)c1C#N
IC50 (Estrogen receptor beta [1]): 18.2 µM (not active)
IC50 (Estrogen receptor beta [3]): 18.5 µM (active)

O=C(O)CC1SC(N/N=C/c2ccc(-c3ccc(Cl)c([N+](=O)[O-])c3)o2)=NC1=O (stereo not given)
IC50 (Aminopeptidase N): 54.1 µM (active)
AC50 (Caspase-6): 25.1 µM (active)

COc1ccc2c3c(n(C)c2c1)[C@H](CO)N(CC1CCOCC1)CC31CCN(Cc2nccs2)CC1
AC50 [19]: 1.32 µM (active)
AC50 [20]: > 100 µM (inactive)
AC50 [21]: 1.1 µM (active)
AC50 [22]: 0.845 µM (active)
AC50 [23]: 1.46 µM (active)

OC[C@H]1Nc2ccc(C#Cc3ccc(F)cc3)cc2[C@H]2[C@@H]1CCN2Cc1ccc2c(c1)OCO2
AC50 [19]: 3.18 µM (active)
AC50 [20]: 20.9 µM (active)
AC50 [21]: 3.38 µM (active)
AC50 [22]: 4 µM (active)
AC50 [24]: 26.2 µM (active)
AC50 [23]: 2.75 µM (active)
